# Experimental data published in patent US20140023611A1 (priority 2010, published 2014).
# How the values were obtained:
# [1] = target: T1, human NaP2b (SLC34A2) (Homo sapiens, UniProt O95436); assay: Inhibition of NaP2b-mediated Pi (33P) uptake in transfected HEK293 cells, human NaP2b; format: cell-based; details: read-out: pIC50 range for human NaP2b (converted)
# T1 construct: host or cells: HEK293
# T1 sequence (O95436 1-690): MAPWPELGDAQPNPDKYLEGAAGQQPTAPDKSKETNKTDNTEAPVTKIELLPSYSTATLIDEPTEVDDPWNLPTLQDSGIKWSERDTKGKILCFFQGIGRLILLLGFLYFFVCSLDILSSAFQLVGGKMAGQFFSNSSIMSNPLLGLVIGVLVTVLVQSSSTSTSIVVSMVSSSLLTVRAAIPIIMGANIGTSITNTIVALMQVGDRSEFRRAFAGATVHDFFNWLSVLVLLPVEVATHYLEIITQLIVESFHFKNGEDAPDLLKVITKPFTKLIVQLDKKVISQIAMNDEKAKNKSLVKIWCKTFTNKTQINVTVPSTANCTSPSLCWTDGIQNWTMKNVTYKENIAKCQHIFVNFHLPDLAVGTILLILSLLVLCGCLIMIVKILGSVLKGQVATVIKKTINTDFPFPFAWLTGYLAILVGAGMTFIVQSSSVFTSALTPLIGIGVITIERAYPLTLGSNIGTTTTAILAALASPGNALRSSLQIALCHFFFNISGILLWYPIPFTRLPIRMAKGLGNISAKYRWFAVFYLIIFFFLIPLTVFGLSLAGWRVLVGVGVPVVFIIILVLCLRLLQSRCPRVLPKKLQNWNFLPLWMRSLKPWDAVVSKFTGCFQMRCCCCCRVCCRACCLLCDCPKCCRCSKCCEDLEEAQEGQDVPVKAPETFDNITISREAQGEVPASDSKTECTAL
# Method in brief: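 Uptake of 33P-phosphate (100 uM KH2PO4 carrier, sodium vs choline buffer, pH 7.4) measured after 3-30 min at room temperature, with test compound at twelve concentrations from 0.1 nM to 30 uM in duplicate. Cells were HEK293 transfected with mutated human NaP2b (Thr insertion after 37, N39D) and treated with a PiT-silencing agent. pIC50 values from scintillation counts.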
# [2] = target: T2, rat NaP2b (SLC34A2) (Rattus norvegicus, UniProt Q9JJ09); assay: Inhibition of NaP2b-mediated Pi (33P) uptake in transfected HEK293 cells, rat NaP2b; format: cell-based; details: 33P Pi uptake, 0.1 mM phosphate, value given as pIC50 range
# T2 construct: host or cells: HEK293
# T2 sequence (Q9JJ09 1-695): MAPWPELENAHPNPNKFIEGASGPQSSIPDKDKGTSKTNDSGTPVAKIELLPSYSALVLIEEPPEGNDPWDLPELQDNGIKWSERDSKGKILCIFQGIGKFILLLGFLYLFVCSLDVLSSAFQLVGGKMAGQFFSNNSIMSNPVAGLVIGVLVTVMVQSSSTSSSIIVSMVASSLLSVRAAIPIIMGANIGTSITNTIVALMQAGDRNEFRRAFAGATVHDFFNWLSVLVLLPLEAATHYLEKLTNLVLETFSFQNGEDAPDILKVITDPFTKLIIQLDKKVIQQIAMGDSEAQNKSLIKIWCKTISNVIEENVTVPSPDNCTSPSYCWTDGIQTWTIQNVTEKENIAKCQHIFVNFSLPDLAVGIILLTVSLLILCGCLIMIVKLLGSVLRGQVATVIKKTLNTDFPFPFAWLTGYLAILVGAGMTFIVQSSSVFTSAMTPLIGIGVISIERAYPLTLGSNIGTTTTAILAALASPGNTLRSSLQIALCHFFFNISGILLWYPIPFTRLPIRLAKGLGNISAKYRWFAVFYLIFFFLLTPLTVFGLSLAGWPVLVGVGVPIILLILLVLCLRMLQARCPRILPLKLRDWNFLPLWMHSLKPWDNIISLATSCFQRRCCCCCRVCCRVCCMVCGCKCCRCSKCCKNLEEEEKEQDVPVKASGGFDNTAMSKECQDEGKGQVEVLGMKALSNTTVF
# Method in brief: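 The cells transiently expressed NaP2b after Lipofectamine transfection. Each compound was run in duplicate over twelve concentrations, 0.1 nM–30 uM.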
smiles,measurement,setting,value
COCCOCCOCCOCCOCCOCCOCCN(C)C(=O)CCOCCOCCOCCOCCCc1cccc(C(=O)Nc2ccc(N3CCCCC3)cc2-c2cc(C(=O)NCc3cccc(C(F)(F)F)c3)ccn2)c1 [Example 276],IC50,[1],1000 to 7940 nM
same,IC50,[2],1000 to 7940 nM
O=C(NCc1cccc(C(F)(F)F)c1)c1ccnc(-c2cc(N3CCCCC3)ccc2NC(=O)c2cccc(CCCOCCOCCOCCOCCC(=O)N(CCO)CCO)c2)c1 [Example 277],IC50,[1],1000 to 7940 nM
same,IC50,[2],1000 to 7940 nM
O=C(CCOCCOCCOCCOCCCc1cccc(C(=O)Nc2ccc(N3CCCCC3)cc2-c2cc(C(=O)NCc3cccc(C(F)(F)F)c3)ccn2)c1)NC(CO)(CO)CO [Example 278],IC50,[1],1000 to 7940 nM
same,IC50,[2],1000 to 7940 nM
CCN(CC)c1ccc(NC(=O)c2cccc(CCCOCCOCCOCCOCCC(=O)NCCOCCOCCOCCOCCOCCOCCOCCOC)c2)c(-c2cc(C(=O)N[C@H]3CCCc4ccccc43)ccn2)c1 [Example 279],IC50,[1],1000 to 7940 nM
same,IC50,[2],1000 to 7940 nM
CCN(CC)c1ccc(NC(=O)c2cccc(CCCOCCOCCOCCOCCC(=O)N(C)CCOCCOCCOCCOCCOCCOCCOC)c2)c(-c2cc(C(=O)N[C@H]3CCCc4ccccc43)ccn2)c1 [Example 280],IC50,[1],< 1000 nM
same,IC50,[2],< 1000 nM
CCN(CC)c1ccc(NC(=O)c2cccc(CCCOCCOCCOCCOCCC(=O)N(CCO)CCO)c2)c(-c2cc(C(=O)N[C@H]3CCCc4ccccc43)ccn2)c1 [Example 282],IC50,[1],1000 to 7940 nM
same,IC50,[2],< 1000 nM
CCN(CC)c1ccc(NC(=O)c2cccc(CCCOCCOCCOCCOCCC(=O)NC(CO)(CO)CO)c2)c(-c2cc(C(=O)N[C@H]3CCCc4ccccc43)ccn2)c1 [Example 283],IC50,[1],1000 to 7940 nM
same,IC50,[2],< 1000 nM
"CC(C)(C)OC(=O)CCOCCOCCOCCOCCCc1cccc(C(=O)Nc2ccc(OC3CCC3)cc2-c2cc(C(=O)N[C@H]3CCCc4ccccc43)ccn2)c1 [Example 284, (S)-tert-butyl 16-(3-((4-cyclobutoxy-2-(4-((1,2,3,4-tetrahydronaphthalen-1-yl)carbamoyl)pyridin-2-yl)phenyl)carbamoyl)phenyl)-4,7,10,13-tetraoxahexadecan-1-oate]",IC50,[1],1000 to 7940 nM
same,IC50,[2],1000 to 7940 nM
"CCN(CC)c1ccc(NC(=O)c2cccc(CCCOCCOCCOCCOCCNS(=O)(=O)c3cccc(C(=O)O)c3)c2)c(-c2cc(C(=O)NCc3cccc(C(F)(F)F)c3)ccn2)c1 [Example 289, 3-(N-(15-(3-(4-(diethylamino)-2-(4-(3-(trifluoromethyl)benzylcarbamoyl)pyridin-2-yl)phenylcarbamoyl)phenyl)-3,6,9,12-tetraoxapentadecyl)sulfamoyl)benzoic acid]",IC50,[1],1000 to 7940 nM
same,IC50,[2],1000 to 7940 nM
"CCN(CC)c1ccc(NC(=O)c2cccc(CCCOCCOCCOCCOCCC(=O)N3CCN(S(=O)(=O)c4ccc(C(=O)O)cc4)CC3)c2)c(-c2cc(C(=O)NCc3cccc(C(F)(F)F)c3)ccn2)c1 [Example 290, 4-(4-(16-(3-(4-(diethylamino)-2-(4-(3-(trifluoromethyl)benzylcarbamoyl)pyridin-2-yl)phenylcarbamoyl)phenyl)-4,7,10,13-tetraoxahexadecane)piperazin-1-ylsulfonyl)benzoic acid]",IC50,[1],1000 to 7940 nM
same,IC50,[2],10000 to 31600 nM
"CCN(CC)c1ccc(NC(=O)c2cccc(CCCOCCOCCOCCOCCC(=O)N3CCN(S(=O)(=O)c4ccc(C)cc4)CC3)c2)c(-c2cc(C(=O)NCc3cccc(C(F)(F)F)c3)ccn2)c1 [Example 291, 2-(5-(diethylamino)-2-(3-(16-oxo-16-(4-tosylpiperazin-1-yl)-4,7,10,13-tetraoxahexadecyl)benzamido)phenyl)-N-(3-(trifluoromethyl)benzyl)isonicotinamide]",IC50,[1],< 1000 nM
same,IC50,[2],1000 to 7940 nM
"CCN(CC)c1ccc(NC(=O)c2cccc(CCCOCCOCCOCCOCCC(=O)N3CCN(S(=O)(=O)C(C)C)CC3)c2)c(-c2cc(C(=O)NCc3cccc(C(F)(F)F)c3)ccn2)c1 [Example 292, 2-(5-(diethylamino)-2-(3-(16-(4-(isopropylsulfonyl)piperazin-1-yl)-16-oxo-4,7,10,13-tetraoxahexadecyl)benzamido)phenyl)-N-(3-(trifluoromethyl)benzyl)isonicotinamide]",IC50,[1],< 1000 nM
same,IC50,[2],1000 to 7940 nM
"CCN(CC)c1ccc(NC(=O)c2cccc(CCCOCCOCCOCCOCCC(=O)O)c2)c(-c2cc(C(=O)N[C@H]3CCCc4ccccc43)ccn2)c1 [Example 302, (S)-16-(3-(4-(diethylamino)-2-(4-(1,2,3,4-tetrahydronaphthalen-1-ylcarbamoyl)pyridin-2-yl)phenylcarbamoyl)phenyl)-4,7,10,13-tetraoxahexadecan-1-oic acid]",IC50,[1],< 1000 nM
same,IC50,[2],< 1000 nM
"O=C(O)CCOCCOCCOCCOCCCc1cccc(C(=O)Nc2ccc(N3CCCCC3)cc2-c2cc(C(=O)NCc3cccc(C(F)(F)F)c3)ccn2)c1 [Example 303, 16-(3-(4-(piperidin-1-yl)-2-(4-(3-(trifluoromethyl)benzylcarbamoyl)pyridin-2-yl)phenylcarbamoyl)phenyl)-4,7,10,13-tetraoxahexadecan-1-oic acid]",IC50,[1],< 1000 nM
same,IC50,[2],1000 to 7940 nM
"CCN(CC)c1ccc(NC(=O)c2cccc(CCCOCCOCCOCCOCCOCCOCCC(=O)O)c2)c(-c2cc(C(=O)N[C@H]3CCCc4ccccc43)ccn2)c1 [Example 304, (S)-22-(3-(4-(diethylamino)-2-(4-(1,2,3,4-tetrahydronaphthalen-1-ylcarbamoyl)pyridin-2-yl)phenylcarbamoyl)phenyl)-4,7,10,13,16,19-hexaoxadocosan-1-oic acid]",IC50,[1],< 1000 nM
same,IC50,[2],< 1000 nM
"CCN(CC)c1ccc(NC(=O)c2cccc(CCCOCCOCCOCCOCCOCCC(=O)O)c2)c(-c2cc(C(=O)N[C@H]3CCCc4ccccc43)ccn2)c1 [Example 306, (S)-19-(3-(4-(diethylamino)-2-(4-(1,2,3,4-tetrahydronaphthalen-1-ylcarbamoyl)pyridin-2-yl)phenylcarbamoyl)phenyl)-4,7,10,13,16-pentaoxanonadecan-1-oic acid]",IC50,[1],< 1000 nM
same,IC50,[2],< 1000 nM
"CCN(CC)c1ccc(NC(=O)c2cccc(CCCOCCOCCOCCOCCOCC(CO)(CO)CO)c2)c(-c2cc(C(=O)NCc3cccc(C(F)(F)F)c3)ccn2)c1 [Example 332, N-(3-(trifluoromethyl)benzyl)-2-(5-(diethylamino)-2-(3-(3-(2-(2-(2-(2-(3-hydroxy-2,2-bis(hydroxymethyl)propoxy)ethoxy)ethoxy)ethoxy)ethoxy)propyl)benzamido)phenyl)isonicotinamide]",IC50,[1],< 1000 nM
same,IC50,[2],< 1000 nM
"CCN(CC)c1ccc(NC(=O)c2cccc(C(=O)N(C)CCN(CCOC)CCOCCOCCOCCC(=O)NC(C)(C)C)c2)c(-c2cc(C(=O)NCc3cccc(C(F)(F)F)c3)ccn2)c1 [Example 337, N^1-(4-(Diethylamino)-2-(4-(3-(trifluoromethyl)benzylcarbamoyl)pyridin-2-yl)phenyl)-N3-(3-(2-methoxyethyl)-17,17-dimethyl-15-oxo-6,9,12-trioxa-3,16-diazaoctadecyl)-N^3-methylisophthalamide]",IC50,[1],1000 to 7940 nM
same,IC50,[2],1000 to 7940 nM
"CCN(CC)c1ccc(NC(=O)c2cccc(C(=O)N(C)CCN(CCOC)CCOCCOCCOCCC(=O)N(C)CCN3CCOCC3)c2)c(-c2cc(C(=O)NCc3cccc(C(F)(F)F)c3)ccn2)c1 [Example 338, N^1-(4-(Diethylamino)-2-(4-(3-(trifluoromethyl)benzylcarbamoyl)pyridin-2-yl)phenyl)-N^3-(3-(2-methoxyethyl)-16-methyl-18-morpholino-15-oxo-6,9,12-trioxa-3,16-diazaoctadecyl)-N^3-methylisophthalamide]",IC50,[1],1000 to 7940 nM
same,IC50,[2],1000 to 7940 nM
